# Experimental data reported in US6083964A, “Optical resolution of racemic aminoalkylpyridine anticonvulsants and (+) aminoalkylpyridine enantiomers as highly potent orally effective anticonvulsant drugs and excitatory amino acid antagonists” (K and K Biosciences, Inc., priority 1999, dated 2000).
# Legend:
# [1] = tested on: maximal electroshock seizure (MES) in mice; assay: Maximal electroshock seizure (MES) test, mice, i.p.; assay type: in vivo, mouse (male Carworth Farms #1); conditions: listed as (1) (-) Enantiomer
# Source text: The (+) AAP enantiomers obtained by optical resolution of racemic AAPs and the resulting highly orally effective anticonvulsant compositions of this invention are useful in the treatment of convulsive disorders. […] A series of (+) AAP enantiomers and (-) AAP enantiomers of this invention has been evaluated for anticonvulsant activity by the intraperitoneal (i.p.) and by the oral (p.o.) route using two standard seizure models in the mouse and in the rat, the maximal electroshock seizure (MES) test and the subcutaneous pentylenetetrazol (Metrazole) seizure threshold (scMet) test. […] The following Table 2 presents the results of these anticonvulsant tests with respect to several (+) and (-) AAP enantiomeric compounds derived from optical resolution of racemic AAPs of the present invention. This Table 2 identifies the specific compounds tested by their chemical name and provides the test model, the route of administration, the animal species used, and the anticonvulsant activity and toxicity in terms of ED50 and TD50 values, (the median effective and toxic dose respectively), when intraperitoneally administered to mice, and when orally administered to rats. In mice, i.p.: All compounds are emulsified in 0.5% methylcellulose. The solvent has been tested for anticonvulsant and toxic effects and found to introduce no significant bias into the testing of anticonvulsant activity. The compounds are administered intraperitoneally in a volume of 0.01 ml/gm to male Carworth Farms #1 mice weighing about 20 gm. All compounds are tested at least at three dose levels (30, 100 and 300 mg/kg) at 30 minutes and 4 hours after their administration. The Maximal Electroshock Seizure Test (MES): Maximal electroshock seizures are elicited with a 60 Hz alternating current of 50 mA intensity in mice and about 150 mA intensity in rats (5-7 times that necessary to elicit minimal electroshock seizures), delivered for 0.2 sec via corneal electrodes. A drop of 0.9% saline is instilled in the eye prior to application of the electrodes in order to […]. Abolition of the hind limb tonic extension component of the seizure is defined as protection and results are expressed as number of animals protected/number of animals tested. The Subcutaneous Pentylenetetrazol (Metrazole) Seizure Threshold Test (scMet): A 0.5% solution of 85 mg/kg of pentylenetetrazol is administered subcutaneously in the posterior midline 30 minutes or 4 hours after drug administration to the animal. […] Anticonvulsant Quantification in Mice i.p.: The ED50 values are determined in the MES, scMet and rotorod ataxia test. To determine the ED50 values, five logarithmically spaced doses of the test compound are administered to animals (male Carworth Farms #1 mice) in groups of eight, to cover 0-100% protection, and the dose required to protect 50% of the animals (ED50) together with its 95% confidence limits, is determined graphically.
# hippocampal kindled rats = assay: Hippocampal kindled rat model, i.p.; assay type: in vivo; set-up: key to Seizure Score ± S.E.M.: Racine seizure class scale; class 5 = rearing and falling
# Source text: "Kindling" refers to the process whereby repeated administration of an initially subconvulsive electrical stimulus results in progressive intensification of epileptic discharge culminating in a generalized seizure. Kindling can be induced by electrical stimulation of many sites in the brain, especially in "limbic" areas, which include amygdala, hippocampus, and entorhinal cortex [Racine, R., Neurosurgery, 3, 234-252 (1978)]. Kindling is reliably produced by a one second train of 60 Hz square wave stimuli of one millisecond duration at current levels which initially produce only a slight afterdischarge (AD), but no behavioral response. Repeated stimulation, typically once daily, results in a progressive increase in AD amplitude, duration and complexity with subsequent spread to other brain areas culminating in a fully generalized motor seizure. [Racine, R. J. and Zaide, J., In "Mechanisms, the Continuing Evolution of the Limbic System Concept" (K. E. Livingston and O. Hornykiewicz, eds.), Plenum Press, pp. 457-493, 1978.
# The development of kindling in the rat has been characterized by five (1 to 5) behavioral and electrographic "classes". The behavior in classes 1 (facial clonus) and 2 (head nodding) mimics that found in human complex partial seizures; the behavior in other classes would be consistent with limbic seizures evolving to generalized motor seizures. An animal is considered to be fully kindled once the enhanced sensitivity has developed, as evidenced by a class 5 seizure (rearing and falling).
# The (+) AAP enantiomer, compound 1 in Table 1, was tested in the hippocampal kindled rat, by the i.p. route. […]
# The (-) AAP enantiomer, compound 2 in Table 1, was also tested in the hippocampal kindled rat, by the i.p. route.
# [2] = tested on: pentylenetetrazol (Metrazole) seizure threshold in mice; assay: Timed intravenous Metrazol (PTZ) seizure threshold test in mice, i.p.; assay type: in vivo, mouse; conditions: mice
# Source text: A compound that is active in the MES test and prevents seizure spread, can lower seizure threshold at the same time. Such a compound would have proconvulsant activity while at the same time prevent generalized tonic seizures. […] The timed intravenous pentylenetetrazol (Metrazol) seizure threshold test in mice identifies those MES compounds with proconvulsant potential.
# Mice were given the (+) and (-) enantiomers, compounds 1 and 2 in Table 1, intraperitoneally at the ED50 and TD50. At the time of maximal MES activity, an intravenous infusion of 0.5% heparinized solution of pentylenetetrazol (PT2) (0.34 ml/min) was started. The time to the appearance of the first myoclonic jerk (twitch) and the subsequent sustained clonic seizure (clonus) were the measured endpoints. Results were obtained for groups of ten treated and ten saline control mice and converted to the dose in mg/kg of PTZ necessary to produce the two endpoints.
# Experiments were performed using three doses of 0, 36 and 149 mg/kg on each of 10 animals per dosage group. The time to "twitch" and the time to "clonus", the two components of the seizure elicited by the infusion of metrazol, were observed.
structure (smiles),measurement,setting,value
"CC(Nc1ccc(Cl)cc1)c1ccncc1 (single isomer, unassigned; (-)) [Compound 2, (-) N-(4-Chlorophenyl)-1-(4-pyridyl)ethylamine]",ED50,[1]; MES test,60.3 mg/kg
same,"P.I. (protective index, TD50/ED50)",[1]; MES,3.6
same,Afterdischarge Duration (sec) ± S.E.M.,"hippocampal kindled rats; 100 mg/kg i.p., 15 min",69.88 ± 8.29 s
same,Seizure Score ± S.E.M.,"hippocampal kindled rats; 100 mg/kg i.p., 15 min, Table 3 value * significantly different from control",4.63 ± 0.38
same,Afterdischarge Duration (sec) ± S.E.M.,"hippocampal kindled rats; 100 mg/kg i.p., 45 min",74.88 ± 10.31 s
same,Seizure Score ± S.E.M.,"hippocampal kindled rats; 100 mg/kg i.p., 45 min, Table 3 value * significantly different from control",4.25 ± 0.49
same,Afterdischarge Duration (sec) ± S.E.M.,"hippocampal kindled rats; 100 mg/kg i.p., 75 min",82.50 ± 6.11 s
same,Seizure Score ± S.E.M.,"hippocampal kindled rats; 100 mg/kg i.p., 75 min, Table 3 value * significantly different from control",4.75 ± 0.16
same,Afterdischarge Duration (sec) ± S.E.M.,"hippocampal kindled rats; 100 mg/kg i.p., 105 min",75.75 ± 11.71 s
same,Seizure Score ± S.E.M.,"hippocampal kindled rats; 100 mg/kg i.p., 105 min, Table 3 value * significantly different from control",4.50 ± 0.50
same,Afterdischarge Duration (sec) ± S.E.M.,"hippocampal kindled rats; 100 mg/kg i.p., 135 min",82.63 ± 5.04 s
same,Seizure Score ± S.E.M.,"hippocampal kindled rats; 100 mg/kg i.p., 135 min",4.75 ± 0.16
same,Afterdischarge Duration (sec) ± S.E.M.,"hippocampal kindled rats; 100 mg/kg i.p., 165 min",79.00 ± 12.92 s
same,Seizure Score ± S.E.M.,"hippocampal kindled rats; 100 mg/kg i.p., 165 min",4.13 ± 0.61
same,# Protected/# Tested,"hippocampal kindled rats; 100 mg/kg i.p., 195 min",2/8
same,Afterdischarge Duration (sec) ± S.E.M.,"hippocampal kindled rats; 100 mg/kg i.p., 195 min",69.25 ± 11.15 s
same,Seizure Score ± S.E.M.,"hippocampal kindled rats; 100 mg/kg i.p., 195 min",3.88 ± 0.67
same,Afterdischarge Duration (sec) ± S.E.M.,"hippocampal kindled rats; 100 mg/kg i.p., 225 min",83.75 ± 5.17 s
same,Seizure Score ± S.E.M.,"hippocampal kindled rats; 100 mg/kg i.p., 225 min",4.25 ± 0.16
same,Afterdischarge Duration (sec) ± S.E.M.,"hippocampal kindled rats; 100 mg/kg i.p., 255 min",73.13 ± 11.97 s
same,Seizure Score ± S.E.M.,"hippocampal kindled rats; 100 mg/kg i.p., 255 min",4.00 ± 0.50
same,Afterdischarge Duration (sec) ± S.E.M.,"hippocampal kindled rats; 100 mg/kg i.p., 285 min",84.50 ± 6.76 s
same,Seizure Score ± S.E.M.,"hippocampal kindled rats; 100 mg/kg i.p., 285 min",4.83 ± 0.17
same,activity in hippocampal kindled rat (in words),hippocampal kindled rats; i.p.,only moderate activity
same,amount of PTZ required to produce the twitch and clonus and time to twitch and time to clonus (in words),[2],only in modest amounts
